From paper PMC3824017 (The Journal of Cell Biology, 2013)

Key:
[1] = target: T1, erlin-1 (Homo sapiens, UniProt O75477); type: binding
T1 sequence (O75477 1-348): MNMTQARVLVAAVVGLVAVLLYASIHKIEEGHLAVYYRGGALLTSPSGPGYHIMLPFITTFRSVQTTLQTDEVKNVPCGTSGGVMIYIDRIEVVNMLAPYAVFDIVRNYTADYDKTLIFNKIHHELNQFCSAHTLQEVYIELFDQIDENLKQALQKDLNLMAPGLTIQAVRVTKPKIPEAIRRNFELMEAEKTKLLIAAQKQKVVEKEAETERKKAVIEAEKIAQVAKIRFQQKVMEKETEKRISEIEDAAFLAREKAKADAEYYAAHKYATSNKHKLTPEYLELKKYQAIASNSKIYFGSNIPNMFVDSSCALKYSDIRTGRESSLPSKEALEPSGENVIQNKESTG

[2] = target: T2, erlin-2 (native erlin-1/2 complex) (Mus musculus, UniProt Q8BFZ9+Q91X78); type: binding
T2 sequence (Q8BFZ9 1-340): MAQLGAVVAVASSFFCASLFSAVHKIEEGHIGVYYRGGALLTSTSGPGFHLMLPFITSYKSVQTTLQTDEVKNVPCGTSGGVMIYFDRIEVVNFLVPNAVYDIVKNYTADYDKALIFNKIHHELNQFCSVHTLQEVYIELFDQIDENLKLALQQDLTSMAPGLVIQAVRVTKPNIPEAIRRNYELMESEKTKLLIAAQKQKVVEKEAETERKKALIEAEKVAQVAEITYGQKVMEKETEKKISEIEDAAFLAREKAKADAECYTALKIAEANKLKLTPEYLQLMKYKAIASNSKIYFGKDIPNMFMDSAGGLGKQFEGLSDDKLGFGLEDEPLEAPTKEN
T2 sequence (Q91X78 1-348): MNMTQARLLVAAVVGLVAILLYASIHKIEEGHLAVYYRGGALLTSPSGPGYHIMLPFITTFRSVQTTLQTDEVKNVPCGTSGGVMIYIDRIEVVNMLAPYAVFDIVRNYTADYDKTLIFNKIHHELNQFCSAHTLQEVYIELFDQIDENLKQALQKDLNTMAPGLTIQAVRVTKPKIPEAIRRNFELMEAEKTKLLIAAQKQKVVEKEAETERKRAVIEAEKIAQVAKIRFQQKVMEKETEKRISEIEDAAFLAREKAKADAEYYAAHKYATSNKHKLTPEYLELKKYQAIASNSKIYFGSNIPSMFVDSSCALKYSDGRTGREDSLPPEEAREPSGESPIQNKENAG

CC(C)CCC[C@@H](C)[C@H]1CC[C@H]2[C@@H]3CC=C4C[C@@H](O)CC[C@]4(C)[C@H]3CC[C@]12C [cholesterol]
Kd [1]: 13.2 µM
Kd [2]: 13.4 µM
